Values quoted from earlier work as cited in the CATMoS acute toxicity set (Mansouri et al. 2021).
Where “and” joins values, the source holds several entries; their conditions need not be identical. Identical values can stand only once.

Test: rat acute oral toxicity
Settings: in vivo

Q: Which LD50 does the source give for `CCCC1(c2cccc(O)c2)CCN(C)C1` (stereo not given) here?
A: 231 mg/kg

Q: With `CCOC(=O)c1ccc(OC(=O)CCCCCNC(=N)N)cc1` as the compound, how does the LD50 read?
A: 6480 mg/kg

Q: Which LD50 does the source give for `NCCOC(=O)C=CC(=O)OCCN` here?
A: 4920 mg/kg

Q: With `O=C(C(F)(F)Cl)C(F)(F)Cl` as the compound, how does the LD50 read?
A: 61 mg/kg

Q: Which LD50 does the source give for `Cc1ccccc1O` here?
A: 1860 mg/kg

Q: For `COC(N)=O`, which LD50 is on record?
A: 2500 mg/kg

Q: With `Cc1ccc(C(C)C=O)cc1` (stereo not given) as the compound, how does the LD50 read?
A: 3500 mg/kg

Q: For `Clc1cccc(C2CCCCC2)c1Cl`, which LD50 is on record?
A: 4750 mg/kg

Q: Which LD50 does the source give for `CCCC1=NN(c2ccccc2)C(=O)C1C=O` (stereo not given) here?
A: 765 mg/kg

Q: For `Cc1cc(Cl)ccc1OCC(=O)Nc1ccccc1`, which LD50 is on record?
A: 4500 mg/kg

Q: Which LD50 does the source give for `CCC(C)c1ccccc1OC(N)=O` (stereo not given) here?
A: 410 mg/kg

Q: With `CC(C)NNCS(=O)(=O)O` as the compound, how does the LD50 read?
A: 330 mg/kg

Q: With `Clc1cccc(N2CCNCC2)n1` as the compound, how does the LD50 read?
A: 174 mg/kg

Q: Which LD50 does the source give for `COc1cc2[nH]c(C)c(CCN3CCN(c4ccccc4)CC3)c2cc1OC` here?
A: 1000 mg/kg

Q: With `O=C(O)C(O)(c1ccccc1)C1CCCCC1` (stereo not given) as the compound, how does the LD50 read?
A: 2670 mg/kg

Q: With `CCOP(=O)(OC=C(Cl)Cl)OCC` as the compound, how does the LD50 read?
A: 2.5 mg/kg

Q: With `CC(C)CCCCCOC(=O)COc1ccc(Cl)cc1Cl` as the compound, how does the LD50 read?
A: 982 mg/kg

Q: Which LD50 does the source give for `O=S(=O)(Oc1ccc(Cl)cc1)c1ccccc1` here?
A: 1350 mg/kg

Q: For `Fc1c(Cl)c(F)c2nc(C(F)(F)F)[nH]c2c1Cl`, which LD50 is on record?
A: 1.67 mg/kg

Q: Which LD50 does the source give for `CC(C)(C)OC(=O)CCl` here?
A: 380 mg/kg

Q: For `COCC(=O)N(c1c(C)cccc1C)N1CCOC1=O`, which LD50 is on record?
A: 1860 mg/kg

Q: Which LD50 does the source give for `CCBr` here?
A: 1350 mg/kg

Q: Which LD50 does the source give for `CCCC(=O)c1ccc2c(c1)N(CCCN1CCN(C)CC1)c1ccccc1S2` here?
A: 413 mg/kg

Q: With `CCCC(C(=O)OCCN(CC)CC)(c1ccccc1)c1ccccc1` as the compound, how does the LD50 read?
A: 2140 mg/kg

Q: Which LD50 does the source give for `CN(C)CCN(Cc1ccccc1)c1ccccc1` here?
A: 300 mg/kg

Q: Which LD50 does the source give for `C=C(C)CN(CC)c1c([N+](=O)[O-])cc(C(F)(F)F)cc1[N+](=O)[O-]` here?
A: 10000 mg/kg

Q: Which LD50 does the source give for `C#CCN1CCC2=C(C1)c1c(OC(=O)CCCN3CCCCC3)cc(C(C)C(C)CCCCC)cc1OC2(C)C` (stereo not given) here?
A: 130 mg/kg

Q: Which LD50 does the source give for `CC(Cl)CCl` (stereo not given) here?
A: 1950 mg/kg

Q: For `O=C(OCCCOCCCOC(=O)c1ccccc1)c1ccccc1`, which LD50 is on record?
A: 9800 mg/kg

Q: For `Cc1ncc(CO)c(CN)c1O`, which LD50 is on record?
A: 7500 mg/kg

Q: For `C=CC(=C)Cl`, which LD50 is on record?
A: 450 mg/kg

Q: With `CC(C)CC(C)CC(O)CC(C)C` (stereo not given) as the compound, how does the LD50 read?
A: 17000 mg/kg

Q: With `COc1c(C(=O)CCC(=O)O)ccc2c(C)c(C)oc12` as the compound, how does the LD50 read?
A: 3000 mg/kg

Q: With `CCCOC(=O)CC(SP(=S)(OC)OC)C(=O)OCCC` (stereo not given) as the compound, how does the LD50 read?
A: 6000 mg/kg

Q: Which LD50 does the source give for `CN1C(=O)c2ccc([N+](=O)[O-])cc2C1=O` here?
A: 2800 mg/kg

Q: For `CC(C)(C)N(NC(=O)c1ccc(Cl)cc1)C(=O)c1ccccc1`, which LD50 is on record?
A: 2850 mg/kg

Q: Which LD50 does the source give for `BrC1(Br)C2CCC1CC2` here?
A: 210 mg/kg

Q: For `CCCc1c(OCc2cccn3c(=O)c(CC(=O)O)cnc23)ccc(C(C)=O)c1O`, which LD50 is on record?
A: 4000 mg/kg

Q: Which LD50 does the source give for `Cc1ncc(CS)c(CS)c1O` here?
A: 549 mg/kg

Q: With `Cc1cc(O)ccc1S(C)=O` (stereo not given) as the compound, how does the LD50 read?
A: 3500 mg/kg

Q: For `CS(=O)(=O)c1ccc2c(c1)N(CCCN1CCC(C(N)=O)CC1)c1ccccc1S2`, which LD50 is on record?
A: 976 mg/kg

Q: For `CCOP(=O)(OCC)SC=C(Cl)Cl`, which LD50 is on record?
A: 1.75 mg/kg

Q: With `CCC(C)C(=O)OC1C(OC(C)=O)c2c(ccc3ccc(=O)oc23)OC1(C)C` (stereo not given) as the compound, how does the LD50 read?
A: 1210 mg/kg

Q: With `CC1=CC(=O)c2c(O)cccc2C1=O` as the compound, how does the LD50 read?
A: 65 mg/kg

Q: For `CN(C)S(=O)(=O)c1cc(Cl)c(N)cc1Cl`, which LD50 is on record?
A: 4090 mg/kg

Q: For `Cc1ccc(=O)n(CSP(=S)(OC(C)C)OC(C)C)n1`, which LD50 is on record?
A: 155 mg/kg

Q: Which LD50 does the source give for `O=C(O)CCC1(CCC(=O)O)c2ccccc2-c2ccccc21` here?
A: 2140 mg/kg

Q: For `C=CC1OCC(C)O1` (stereo not given), which LD50 is on record?
A: 890 mg/kg

Q: Which LD50 does the source give for `CCC(C)C(CN(C)C)c1cc(F)ccc1OC` (stereo not given) here?
A: 300 mg/kg

Q: With `CCOP(=O)(OCC)Oc1ccc([N+](=O)[O-])cc1` as the compound, how does the LD50 read?
A: 1.8 mg/kg

Q: Which LD50 does the source give for `OCC(CBr)(CBr)CBr` here?
A: 1630 mg/kg

Q: With `COCc1ccc(-c2ccc(COC)cc2)cc1` as the compound, how does the LD50 read?
A: 1370 mg/kg

Q: Which LD50 does the source give for `CC(C)CNC(=O)CF` here?
A: 42 mg/kg

Q: With `CNC(=O)Oc1ccccc1C1OCCCO1` as the compound, how does the LD50 read?
A: 142 mg/kg

Q: Which LD50 does the source give for `COC(=O)C1=C(C)NC(C)=C(C(=O)OCCN(C)Cc2ccccc2)C1c1cccc([N+](=O)[O-])c1` (stereo not given) here?
A: 184 mg/kg and 320 mg/kg

Q: Which LD50 does the source give for `CC(=O)OCCC(C)CC(C)(C)C` (stereo not given) here?
A: 4250 mg/kg

Q: Which LD50 does the source give for `C=CCOc1ccccc1C(=O)N(CC)CC` here?
A: 325 mg/kg

Q: With `CCC(C)(C)c1ccc(OCCCCN)c(C(C)(C)CC)c1` as the compound, how does the LD50 read?
A: 800 mg/kg

Q: With `CC1(C)C2CCC1(C)C(Oc1ccc(N)cc1)C2` (stereo not given) as the compound, how does the LD50 read?
A: 660 mg/kg

Q: For `CN1CC(CC(C#N)C(N)=O)CC2c3cccc4[nH]cc(c34)CC21` (stereo not given), which LD50 is on record?
A: 1000 mg/kg

Q: For `CNC(=O)c1ccc(Cl)c(S(=O)(=O)NC)c1`, which LD50 is on record?
A: 1400 mg/kg

Q: With `CC(C)(C)c1ccc(CCC=O)cc1` as the compound, how does the LD50 read?
A: 2700 mg/kg

Q: Which LD50 does the source give for `N#CN=c1ccccn1Cc1ccccc1Cl` here?
A: 500 mg/kg

Q: For `CCCCNCCO`, which LD50 is on record?
A: 1150 mg/kg

Q: With `COc1ccc(Nc2ccc(OC)cc2)cc1` as the compound, how does the LD50 read?
A: 2470 mg/kg

Q: For `CC1=CC[C@@H]2C[C@@H](C[C@]3(CC[C@H](C)[C@@H](C)O3)O2)OC(=O)[C@@H]2C=C(C)[C@@H](O)[C@H]3OCC(=CC=C[C@H](C)C1)[C@]32O`, which LD50 is on record?
A: 456 mg/kg

Q: Which LD50 does the source give for `C=CCSC(=S)SC(Cl)(Cl)Cl` here?
A: 2180 mg/kg

Q: With `Cc1ccc(N)cc1O` as the compound, how does the LD50 read?
A: 3600 mg/kg

Q: For `CCCCC(CC)C(O)C(=O)O` (stereo not given), which LD50 is on record?
A: 3400 mg/kg

Q: Which LD50 does the source give for `CCOC(=O)c1ccccc1` here?
A: 2100 mg/kg

Q: For `CNC(=O)Oc1ccccc1C(C)C`, which LD50 is on record?
A: 450 mg/kg

Q: For `CCS(=O)(=O)CCO`, which LD50 is on record?
A: 18000 mg/kg

Q: For `OC1(c2ccc(Cl)c(C(F)(F)F)c2)CCN(CCCC(c2ccc(F)cc2)c2ccc(F)cc2)CC1`, which LD50 is on record?
A: 160 mg/kg

Q: With `CCOC(=O)CCCCCCCCC(C)c1ccc(I)cc1` (stereo not given) as the compound, how does the LD50 read?
A: 2100 mg/kg

Q: With `CCOP(=S)(OCC)SCCS(=O)(=O)CC` as the compound, how does the LD50 read?
A: 7.5 mg/kg
